Reference: ChEMBL document CHEMBL5518164, “Membrane-permeable tenofovir-di- and monophosphate analogues” (Eur J Med Chem, 2024)
Active and inactive are the calls of the source. The calls are words filed in the database; no cut-off is given here.

Experiments:
[1] = Half life of the compound in human CEM/0 cell extracts by RP18-HPLC analysis; type: ADME, CCRF-CEM
[2] = Half life of the compound in phosphate buffer saline at pH 7.3 by RP18-HPLC analysis; type: ADME
[3] = Lipophilicity of the compound assessed as retention time by RP-HPLC analysis; type: physicochemical
[4] = test system: Human immunodeficiency virus 1; assay: Antiviral activity against HIV-1 HE infected in wild type human CEM/0 cells assessed as inhibition of virus-induced giant cell formation incubated for 4 to 5 days by light microscopy; type: functional, organism-based; conditions: Human immunodeficiency virus 1, HE, CCRF-CEM
[5] = test system: Human immunodeficiency virus 2; assay: Antiviral activity against HIV-2 ROD infected in wild type human CEM/0 cells assessed as inhibition of virus-induced giant cell formation incubated for 4 to 5 days by light microscopy; type: functional, organism-based; conditions: Human immunodeficiency virus 2, ROD, CCRF-CEM
[6] = test system: Human immunodeficiency virus 2; assay: Antiviral activity against HIV-2 ROD infected in thymidine kinase deficient human CEM cells assessed as inhibition of virus-induced giant cell formation incubated for 4 to 5 days by light microscopy; type: functional, organism-based; conditions: Human immunodeficiency virus 2, ROD, CCRF-CEM
[7] = Cytotoxicity against human CEM cells assessed as inhibition of cell proliferation; type: toxicity, cell-based, CCRF-CEM
[8] = Selectivity index, ratio of CC50 for cytotoxicity against human CEM cells to EC50 for antiviral activity against HIV-2 ROD infected in thymidine kinase deficient human CEM cells; type: toxicity, cell-based; conditions: read-out: Ratio CC50/EC50
[9] = test system: Human immunodeficiency virus; assay: Substrate activity at HIV reverse transcriptase assessed as elongation of primer at 250 uM incubated for 30 mins in presence of primer/template mixture by primer extension assay based fluorescence analysis
[10] = test system: Human immunodeficiency virus; assay: Substrate activity at HIV reverse transcriptase assessed as elongation of primer at 250 uM incubated for 30 mins in presence of primer/template mixture and dNTPs by primer extension assay based fluorescence analysis
[11] = target: T1, DNA polymerase subunit gamma-1 (Homo sapiens) (UniProt P54098); assay: Substrate activity at human DNA polymerase gamma assessed as elongation of primer at 250 uM incubated for 120 mins in presence of primer/template mixture by primer extension assay based fluorescence analysis
T1 sequence (whole entry): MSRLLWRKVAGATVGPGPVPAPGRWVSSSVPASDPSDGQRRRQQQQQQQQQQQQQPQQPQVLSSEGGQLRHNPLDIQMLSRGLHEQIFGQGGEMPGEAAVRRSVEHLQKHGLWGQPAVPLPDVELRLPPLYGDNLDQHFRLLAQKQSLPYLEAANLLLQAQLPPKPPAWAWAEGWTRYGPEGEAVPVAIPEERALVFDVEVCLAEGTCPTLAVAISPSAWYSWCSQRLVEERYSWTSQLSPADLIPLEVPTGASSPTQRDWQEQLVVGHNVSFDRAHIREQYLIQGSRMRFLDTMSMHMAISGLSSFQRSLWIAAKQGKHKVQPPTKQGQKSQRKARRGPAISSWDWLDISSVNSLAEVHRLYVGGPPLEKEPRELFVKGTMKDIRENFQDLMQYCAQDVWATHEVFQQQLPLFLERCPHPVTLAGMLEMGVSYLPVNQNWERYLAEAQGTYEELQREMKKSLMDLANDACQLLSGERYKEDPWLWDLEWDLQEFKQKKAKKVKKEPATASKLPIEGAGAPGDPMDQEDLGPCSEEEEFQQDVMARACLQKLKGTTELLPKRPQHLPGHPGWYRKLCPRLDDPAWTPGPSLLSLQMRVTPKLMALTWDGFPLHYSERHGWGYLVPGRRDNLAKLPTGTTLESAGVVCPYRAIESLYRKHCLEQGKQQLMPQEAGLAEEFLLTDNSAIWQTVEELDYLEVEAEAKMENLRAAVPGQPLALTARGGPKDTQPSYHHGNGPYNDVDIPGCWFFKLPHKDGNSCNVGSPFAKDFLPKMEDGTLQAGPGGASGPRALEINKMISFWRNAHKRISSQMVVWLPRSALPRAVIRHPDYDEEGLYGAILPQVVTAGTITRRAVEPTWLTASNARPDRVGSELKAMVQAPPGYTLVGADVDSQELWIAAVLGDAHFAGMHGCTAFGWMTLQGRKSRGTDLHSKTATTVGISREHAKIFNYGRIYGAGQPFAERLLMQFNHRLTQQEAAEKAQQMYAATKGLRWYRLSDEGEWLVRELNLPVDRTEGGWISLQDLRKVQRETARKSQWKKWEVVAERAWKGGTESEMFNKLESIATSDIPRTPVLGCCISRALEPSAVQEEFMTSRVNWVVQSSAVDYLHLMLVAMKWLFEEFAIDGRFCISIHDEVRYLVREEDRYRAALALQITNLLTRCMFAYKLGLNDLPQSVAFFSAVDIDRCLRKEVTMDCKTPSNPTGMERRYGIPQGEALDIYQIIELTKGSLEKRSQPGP

[12] = Half life of the compound in heparin-stabilized human plasma by HPLC analysis; type: ADME, cell-free
[13] = Half life of the compound in citrate-containing human plasma by HPLC analysis; type: ADME, cell-free
[14] = Drug hydrolysis in phosphate buffer saline incubated for 500 hrs at pH 7.3 by RP18-HPLC analysis; type: physicochemical; conditions: read-out: Drug degradation
[15] = Drug hydrolysis in phosphate buffer saline incubated for 600 hrs at pH 7.3 by RP18-HPLC analysis; type: physicochemical; conditions: read-out: Drug degradation

| Structure (SMILES) | half-life [1] [h] | half-life [2] [h] | Retention_time [3] [min] | EC50 [4] [nM] | EC50 [5] [nM] | EC50 [6] [nM] | Activity [9] | Activity [10] | Activity [11] | degraded at 500 h [14] [%] | degraded at 600 h [15] [%] | CC50 [7] [nM] | selectivity ratio [8] | half-life [12] [h] | half-life [13] [h] |
| --- | --- | --- | --- | --- | --- | --- | --- | --- | --- | --- | --- | --- | --- | --- | --- |
| CCCCCCCCCCCCCCCCCCOP(=O)(OCCCCCCCC)OP(=O)(O)OP(=O)(O)CO[C@H](C)Cn1cnc2c(N)ncnc21 (stereo partly drawn) | > 8 | 207 | 16.6 | 160 | 50 | 100 |  |  |  |  |  | 44700 | 447 |  |  |
| CCCCCCCCCCCC(=O)Oc1ccc(COOP(=O)(O)OP(=O)(O)OP(=O)(O)CO[C@H](C)Cn2cnc3c(N)ncnc32)cc1 |  |  |  | 460 | 230 | 300 |  |  |  |  |  | > 100000 | > 333 |  |  |
| CC(C)OC(=O)[C@H](C)N[P@](=O)(CO[C@H](C)Cn1cnc2c(N)ncnc21)Oc1ccccc1.CC(C)OC(=O)[C@H](C)N[P@](=O)(CO[C@H](C)Cn1cnc2c(N)ncnc21)Oc1ccccc1.O=C(O)/C=C/C(=O)O [TENOFOVIR ALAFENAMIDE FUMARATE] |  |  |  |  |  |  |  |  |  |  |  |  |  | 1.5 | 1.5 |
| CCCCOP(=O)(OCCCC)OP(=O)(O)OP(=O)(O)CO[C@H](C)Cn1cnc2c(N)ncnc21 |  | > 1000 | 9.7 | 4270 | 1220 | 2540 |  |  |  |  |  | > 100000 | > 39 |  |  |
| CCCCCCCCCCCCCCCCCCP(=O)(OCCCCCCCC)OP(=O)(O)OP(=O)(O)CO[C@H](C)Cn1cnc2c(N)ncnc21 (stereo partly drawn) | > 8 | > 500 | 16.3 | 640 | 140 | 55 |  |  |  | 36 | 43 | 48500 | 882 |  |  |

Further lines, with some results ahead:

| half-life [1] [h] | half-life [2] [h] | Retention_time [3] [min] | EC50 [4] [nM] | EC50 [5] [nM] | EC50 [6] [nM] | Activity [9] | Activity [10] | Activity [11] | degraded at 500 h [14] [%] | degraded at 600 h [15] [%] | Structure (SMILES) | CC50 [7] [nM] | selectivity ratio [8] | half-life [12] [h] | half-life [13] [h] |
| --- | --- | --- | --- | --- | --- | --- | --- | --- | --- | --- | --- | --- | --- | --- | --- |
| > 8 | 26.5 | 20.1 | 73 | 32 | 22 |  |  |  |  |  | CCCCCCCCCCCCCCCCCCP(=O)(OCCCCCCCC)OP(=O)(O)CO[C@H](C)Cn1cnc2c(N)ncnc21 (stereo partly drawn) | 45200 | 2050 |  |  |
|  |  |  |  |  |  | Active | Active | inactive |  |  | C[C@H](Cn1cnc2c(N)ncnc21)OCP(=O)(O)OP(=O)(O)O |  |  |  |  |
|  | > 1000 | 6.6 | 2080 | 1760 | 880 | inactive | Active | inactive |  |  | C[C@H](Cn1cnc2c(N)ncnc21)OCP(=O)(O)O [TENOFOVIR ANHYDROUS] | > 100000 | > 113 |  |  |
